Results: patent US4705799A, “Aminomethyl oxooxazolidinyl benzenes useful as antibacterial agents” (E. I. Du Pont de Nemours and Company, priority 1985, dated 1987)
Converted amounts (≈) assume the structure as drawn. Structures can show the parent of a compound that is named as a salt. Where two headings read alike, the source gives them in different places.

Legend:
Escherichia coli = test: In vitro broth dilution minimal inhibitory concentration (standard microdilution method); format: cell-based; settings: Escherichia coli, read-out: Microdilution Broth MIC
[1] = test system: Staphylococcus epidermidis; test: as above; format: cell-based; settings: 24 h, read-out: Microdilution Broth MIC
Staphylococcus aureus [2] = test: In vivo efficacy of compounds administered subcutaneously in mouse intraperitoneal infections; settings: sc, 168 h; mouse i.p. Staphylococcus aureus infection; subcutaneous; dosed at infection and 4 h post-infection; 7 days; read-out: ED50 (50 percent effective dose)
Experimental: (§1) Determinations of in vivo efficacy are performed by inoculating mice intraperitoneally with cultures of the infecting organism diluted to produce 90-100% mortality in control animals within twenty-four hours. The diluents used were trypticase soy broth for E. coli and 5% aqueous hog gastric mucin for Staphylococcus aureus infections. The compounds are dissolved or suspended in 0.25% aqueous Methocel® (Methocel®: Hydroxypropyl Methylcellulose E15 Premium, Dow Chemical Company) for oral administration or sterile distilled water containing 5% dimethylsulfoxide (Fisher Scientific Company, Fairlawn, N.J.) for subcutaneous administration. The mice are dosed at the time of infection and again at four hours post-infection. Mortality is recorded daily until test termination seven days post infection and the 50 percent effective dose, ED50, is calculated by the Reed-Muench method (Reed, L. G. and Muench, H., "A simple method of estimating fifty percent end points," American Journal of Hygiene, 27, 493-497 (1938).

Staphylococcus aureus [3] = test: In vivo efficacy of orally administered compounds in mouse intraperitoneal infections; settings: Staphylococcus aureus, po, 168 h, read-out: ED50 (50 percent effective dose)
Experimental: as §1

[4] = mouse i.p. Staphylococcus aureus infection, oral, dosed at infection and 4 h post-infection, 7 days

| MIC (Escherichia coli; Mueller-Hinton broth, 24-hour) | MIC ([1]; Mueller-Hinton broth, 24-hour) | SMILES | ED50 (Staphylococcus aureus [2]) | ED50 (Staphylococcus aureus [3]; [4]) | MIC (Escherichia coli; 24 h) | MIC [1] | ED50 (Staphylococcus aureus [3]) |
| --- | --- | --- | --- | --- | --- | --- | --- |
| > 100 µg/mL | 50 µg/mL | CS(=O)(=O)c1ccc(N2CC(CN)OC2=O)cc1 (racemic) [Example 10, (dl)-5-Aminomethyl-3-[4-(methylsulfonyl)phenyl]-2-oxazolidinone trifluoroacetic Acid Salt] |  |  |  |  |  |
| > 200 µg/mL | 50 µg/mL (≈ 172 µM) | CC(C)c1ccc(N2CC(CNC(=O)CN)OC2=O)cc1 (racemic) [Example 157, (dl)-2-Amino-N-[3-[4-(1-methylethyl)phenyl]-2-oxooxazolidin-5-ylmethyl]acetamide] | 19.6 mg/kg | 58.9 mg/kg |  |  |  |
| > 100 µg/mL | > 100 µg/mL | NS(=O)(=O)c1ccc(N2CC(CNC=O)OC2=O)cc1 (single isomer, unassigned) [Example 24, (l)-N-[3-[4-(Aminosulfonyl)phenyl]-2-oxooxazolidin-5-ylmethyl]formamide] |  | 74.3 mg/kg |  |  |  |
| 100 µg/mL (≈ 344 µM) | 3.1 µg/mL (≈ 10.7 µM) | CC(=O)NCC1CN(c2ccc(C(C)=NN)cc2)C(=O)O1 (single isomer, unassigned) [Example 131, (l)-N-[3-[4-(1-Hydrazonoethyl)phenyl]-2-oxo-5-oxazolidinylmethyl]acetamide] | < 4.4 mg/kg | < 4.4 mg/kg |  |  |  |
| > 200 µg/mL | 3.2 µg/mL (≈ 10.5 µM) | CC(=O)NCC1CN(c2ccc(SCC#N)cc2)C(=O)O1 (single isomer, unassigned) [Example 154, (l)-N-[3-[4-(Cyanomethylthio)phenyl]-2-oxooxazolidin-5-ylmethyl]acetamide] |  |  |  |  |  |
| > 200 µg/mL | 12.5 µg/mL (≈ 40.9 µM) | CON=C(C)c1ccc(N2CC(CNC(C)=O)OC2=O)cc1 (single isomer, unassigned) [Example 160, (l)-N-[3-(4-Acetylphenyl)-2-oxooxazolidin-5-ylmethyl]acetamide Oxime, methyl ether] | < 4.4 mg/kg | < 4.4 mg/kg |  |  |  |
| > 128 µg/mL | 64 µg/mL (≈ 196 µM) | CC(=O)NCC1CN(c2ccc(CBr)cc2)C(=O)O1 (single isomer, unassigned) [Example 166, (l)-N-[3-[4-(Bromomethyl)phenyl]-2-oxooxazolidin-5-ylmethyl]acetamide] |  |  |  |  |  |
| > 128 µg/mL | > 128 µg/mL | CC(=O)c1ccc(N2CC(CN)OC2=O)cc1 (single isomer, unassigned) [Example 170, (l)-3-(4-Acetylphenyl)-5-(aminomethyl)-2-oxazolidinone hydrochloride] | 25.3 mg/kg | 32.3 mg/kg |  |  |  |
| > 200 µg/mL | > 200 µg/mL | CSc1ccc(N2CC(CN=[N+]=[N-])OC2=O)cc1 (centres unmarked) [Example 4] |  | 43.3 mg/kg |  |  |  |
| > 200 µg/mL | 200 µg/mL (≈ 768 µM) | CC(=O)c1ccc(N2CC(CN=[N+]=[N-])OC2=O)cc1 (centres unmarked) [Example 5] | 41.2 mg/kg | 172 mg/kg |  |  |  |
| > 200 µg/mL | 100 µg/mL (≈ 384 µM) | CC(C)c1ccc(N2CC(CN=[N+]=[N-])OC2=O)cc1 (centres unmarked) [Example 7] | 33.7 mg/kg | 24.2 mg/kg |  |  |  |
| > 200 µg/mL | 200 µg/mL (≈ 724 µM) | CC(=O)NCC1CN(c2cccc(C(C)=O)c2)C(=O)O1 (centres unmarked) [Example 37] |  | 62.9 mg/kg |  |  |  |
| > 200 µg/mL | 12.5 µg/mL (≈ 42.8 µM) | C=CC(=O)NCC1CN(c2ccc(SC)cc2)C(=O)O1 (centres unmarked) [Example 40] |  | 53.1 mg/kg |  |  |  |
| > 200 µg/mL | 37.5 µg/mL (≈ 114 µM) | COC(=O)NCC1CN(c2ccc(S(N)(=O)=O)cc2)C(=O)O1 (centres unmarked) [Example 45] | 9.6 mg/kg | > 120 mg/kg |  |  |  |
| > 200 µg/mL | > 200 µg/mL | COC(OC)C(=O)NCC1CN(c2ccc(SC)cc2)C(=O)O1 (centres unmarked) [Example 73] |  | 59.5 mg/kg |  |  |  |
| > 200 µg/mL | > 200 µg/mL | CCOC(OCC)C(=O)NCC1CN(c2ccc(SC)cc2)C(=O)O1 (centres unmarked) [Example 75] |  | 130 mg/kg |  |  |  |
| > 200 µg/mL | > 200 µg/mL | CCOC(OCC)C(=O)NCC1CN(c2ccc(S(C)(=O)=O)cc2)C(=O)O1 (centres unmarked) [Example 76] |  | 58 mg/kg |  |  |  |
| > 200 µg/mL | 200 µg/mL (≈ 638 µM) | CS(=O)(=O)c1ccc(N2CC(CNC(N)=O)OC2=O)cc1 (centres unmarked) [Example 77] | 70.9 mg/kg |  |  |  |  |
| > 200 µg/mL | > 200 µg/mL | CS(=O)(=O)c1ccc(N2CC(CNC(=O)C(N)c3ccccc3)OC2=O)cc1 (centres unmarked) [Example 78] | 67.1 mg/kg |  |  |  |  |
| > 200 µg/mL | 25 µg/mL (≈ 81.1 µM) | C=CC(=O)NCC1CN(c2ccc([S+](C)[O-])cc2)C(=O)O1 (centres unmarked) [Example 91] |  | 50.7 mg/kg |  |  |  |
| > 200 µg/mL | 50 µg/mL (≈ 145 µM) | C[S+]([O-])c1ccc(N2CC(CNC(=O)CCCl)OC2=O)cc1 (centres unmarked) [Example 93] |  | > 120 mg/kg |  |  |  |
| > 128 µg/mL | 32 µg/mL (≈ 109 µM) | CC(=O)NCC1CN(c2ccc(C(O)CO)cc2)C(=O)O1 (centres unmarked) [Example 104] |  |  |  |  |  |

The remaining lines, values behind:

| SMILES | MIC (Escherichia coli; Mueller-Hinton broth, 24-hour) | MIC ([1]; Mueller-Hinton broth, 24-hour) | ED50 (Staphylococcus aureus [2]) | ED50 (Staphylococcus aureus [3]; [4]) | MIC (Escherichia coli; 24 h) | MIC [1] | ED50 (Staphylococcus aureus [3]) |
| --- | --- | --- | --- | --- | --- | --- | --- |
| NCC1CN(c2ccc(S(N)(=O)=O)cc2)C(=O)O1 (single isomer, unassigned) [Example 12, (l)-4-[5-(Aminomethyl)-2-oxooxazolidin-3-yl]benzenesulfonamide] | > 100 µg/mL | > 100 µg/mL | 89.8 mg/kg | 179 mg/kg |  |  |  |
| CC(=O)NCC1CN(c2ccc([N+](=O)[O-])cc2[N+](=O)[O-])C(=O)O1 (single isomer, unassigned) [Example 147, (l)-N-[3-(2,4-Dinitrophenyl)-2-oxooxazolidin-5-ylmethyl]acetamide] |  |  |  |  | > 200 µg/mL | 200 µg/mL (≈ 617 µM) | 44.4 mg/kg |
| CC(=O)NCC1CN(c2ccc(NC(C)=O)cc2)C(=O)O1 (single isomer, unassigned) [Example 150, (l)-N-[3-[4-(Acetylamino)phenyl]-2-oxooxazolidin-5-ylmethyl]acetamide] | > 200 µg/mL | 200 µg/mL (≈ 687 µM) | 12.5 mg/kg | 56.9 mg/kg |  |  |  |
| CC(=O)NCC1CN(c2ccc(C(=O)C=CN(C)C)cc2)C(=O)O1 (single isomer, unassigned) [Example 162] | > 128 µg/mL | 32 µg/mL (≈ 96.6 µM) | 20.9 mg/kg | 11.3 mg/kg |  |  |  |
| CC(=O)NCC1CN(c2ccc(SCCO)cc2)C(=O)O1 (single isomer, unassigned) [Example 167, (l)-N-[3-[4-(2-Hydroxyethylthio)phenyl]-2-oxooxazolidin-5-ylmethyl]acetamide] | > 200 µg/mL | 3.1 µg/mL (≈ 9.99 µM) | 10.8 mg/kg | 68.2 mg/kg |  |  |  |
| CC(=O)NCC1CN(c2ccc(C(=O)COC(C)=O)cc2)C(=O)O1 (single isomer, unassigned) [Example 183, (l)-N-[3-[4-(Acetyloxyacetyl)phenyl]-2-oxo-5-oxazolidinylmethyl]acetamide] | 64 µg/mL (≈ 191 µM) | 0.5 µg/mL (≈ 1.5 µM) | 3.4 mg/kg | 9.1 mg/kg |  |  |  |
| COC(=O)c1ccc(N2CC(CNC(C)=O)OC2=O)cc1 (single isomer, unassigned) [Example 184, (l)-4-[(5-Acetylaminomethyl)-2-oxo-3-oxazolidinyl]benzoic acid methyl ester] | > 128 µg/mL | 4 µg/mL (≈ 13.7 µM) | 37.5 mg/kg | > 60 mg/kg |  |  |  |
| CC(=O)NCC1CN(c2ccc(C=O)cc2)C(=O)O1 (single isomer, unassigned) [Example 185, (l)-N-[3-(4-Formylphenyl)-2-oxo-5-oxazolidinylmethyl]acetamide] | > 128 µg/mL | > 128 µg/mL | 35.9 mg/kg |  |  |  |  |
| CC(=O)c1ccc(N2CC(CN)OC2=O)cc1 (centres unmarked) [Example 15] | > 200 µg/mL | > 200 µg/mL | 24.9 mg/kg | 40 mg/kg |  |  |  |
| CC(C)c1ccc(N2CC(CN)OC2=O)cc1 (centres unmarked) [Example 17] | > 200 µg/mL | > 200 µg/mL | 24.9 mg/kg | > 120 mg/kg |  |  |  |
| CS(=O)(=O)c1ccc(N2CC(CNC(=O)C(F)(F)F)OC2=O)cc1 (centres unmarked) [Example 28] | 50 µg/mL (≈ 136 µM) | 12.5 µg/mL (≈ 34.1 µM) |  | 71.3 mg/kg |  |  |  |
| CCCC(=O)NCC1CN(c2ccc(S(C)(=O)=O)cc2)C(=O)O1 (centres unmarked) [Example 29] | 100 µg/mL (≈ 294 µM) | 12.5 µg/mL (≈ 36.7 µM) |  | 88.7 mg/kg |  |  |  |
| CS(=O)(=O)c1ccc(N2CC(CNC(=O)c3ccccc3)OC2=O)cc1 (centres unmarked) [Example 34] | > 200 µg/mL | 25 µg/mL (≈ 66.8 µM) | 49.6 mg/kg | > 120 mg/kg |  |  |  |
| CNC(=O)NCC1CN(c2ccc(S(C)(=O)=O)cc2)C(=O)O1 (centres unmarked) [Example 35] | 200 µg/mL (≈ 611 µM) | 25 µg/mL (≈ 76.4 µM) |  | 35.8 mg/kg |  |  |  |
| COC(=O)NCC1CN(c2ccc(C(F)(F)F)cc2)C(=O)O1 (centres unmarked) [Example 42] | > 200 µg/mL | 100 µg/mL (≈ 314 µM) | 20.9 mg/kg | 45.5 mg/kg |  |  |  |
| COc1ccc(N2CC(CNC(C)=O)OC2=O)cc1 (centres unmarked) [Example 44] | > 200 µg/mL | 100 µg/mL (≈ 378 µM) |  | 30.3 mg/kg |  |  |  |
| CCCOC(=O)NCC1CN(c2ccc(S(C)(=O)=O)cc2)C(=O)O1 (centres unmarked) [Example 70] | > 200 µg/mL | 50 µg/mL (≈ 140 µM) |  | 51.7 mg/kg |  |  |  |
| COC(OC)C(=O)NCC1CN(c2ccc(S(C)(=O)=O)cc2)C(=O)O1 (centres unmarked) [Example 74] | > 200 µg/mL | 100 µg/mL (≈ 269 µM) |  | 96.6 mg/kg |  |  |  |
| CSc1ccc(N2CC(CNC(=O)CCCl)OC2=O)cc1 (centres unmarked) [Example 92] | > 200 µg/mL | 50 µg/mL (≈ 152 µM) |  | 31 mg/kg |  |  |  |
| CC(=O)NCC1CN(c2ccc(C#CCO)cc2)C(=O)O1 (centres unmarked) [Example 103] | > 50 µg/mL | 12.5 µg/mL (≈ 43.4 µM) |  |  |  |  |  |
| CC(=O)NCC1CN(c2ccc(CO)cc2)C(=O)O1 (centres unmarked) [Example 106] | > 128 µg/mL | 64 µg/mL (≈ 242 µM) |  |  |  |  |  |
